Test results taken from patent US8987449B2, “Medicine for treating ischemic brain injury and its sequelae, and preparation method thereof” (Haimin Lei, priority 2011, dated 2015).

What was measured:
Type in all cases: in vivo, rat
MCAO rats = assay: Neurological symptoms of MCAO rats (Zea Longa 5 grades); settings: 0-4 points; for neurological symptoms evaluation (3 d): model group 1.74 ± 0.73; for neurological symptoms evaluation (7 d): model group 1.61 ± 0.96
Experimental: 140 healthy SD male rats, weighing 280-300 g, provided by Beijing Vital River Laboratories, certificate No.: SCXK (Jing) 2002-2003.
Tetramethylpyrazine (TMP), vanillic acid, LQC-T4 (self made), the purity ≧98%, determined using high performance liquid chromatography (HPLC), which met the requirement of experiment, the powder being carefully sealed and preserved at 4° C., and imodipine (ShanDong XinHua Pharmaceutical CO., Ltd, batch No.: 0908164).
The method of [Koizumi J, Yoshida Y, Nakazawa T, Ooneda G. Experimental studies of ischemia brain edema, I: A new experimental model of cerebral embolism in rats in which recirculation can be introduced in the ischemic area[J]. Jpn J Stroke, 1986, 8:1-8] was referred to in order to establish the MCAO model. After the rats were anesthetized and the skin thereof was disinfected by ethanol. By cutting right in the middle of the neck, the right common carotid artery, internal carotid artery and external carotid artery were separated and the common carotid artery and external carotid artery were ligated. The internal carotid artery was clamped with a bulldog clamp. A cut was made at the crotch of the external carotid artery and the internal carotid artery followed by releasing the bulldog clamp. The nylon wire was inserted into the cut with the deep of about a little longer than 18 mm to achieve the cerebral ischemia caused by cerebral artery occlusion. Next, the external carotid artery was ligated and the nylon wire was fixed. In sham operation group, the right common carotid artery, the external carotid artery and the internal carotid artery were only exposed and separated. The rats were routinely raised in different cages. 0.5 ml penicillin was continuously injected into every mouse for three days after the surgery.
The evaluating standard of the neurological symptoms of MCAO rats were carried out according to the Zea Longa 5 grades evaluating method, that is, the rats were evaluated when they were conscious after 6 h after the surgery: no apparent neurological symptom, 0 point; not being able to completely stretch the left front claw, 1 point; whirling leftward, 2 point; leaning leftward when walking, 3 point; having an epileptic seizure, losing consciousness and not being able to walk independently, as 4 point. The rats getting 1-3 point were selected for the subsequent experiment. The MCAO rats having the same point were distributed randomly and averagely to each experimental group.
There were sham operation group, model group, Nimodipine group, LQC-T 4 large dosage group, LQC-T4 small dosage group, TMP group and TMP+Vanillic acid group. 0.5% CMC-Na (1 ml·100 g^−1) was administrated intragastrically to the blank group and model group, two dosage groups of 120 mg·kg^−1 and 60 mg·kg^−1 were intragastrically administrated to the LQC-T4(1 ml·100 g^−1) group, and 74 mg·kg^−1 TMP+46 mg·kg^−1 vanillitc acid (1 ml·100 g^−1) were intragastrically administrated, once a day continuously for 10 days.
The SPSS 11.0 software pack was used to carry out the statistical analysis of all the data. The comparison of the enumeration data was carried out with X^2 test P<0.05 had statistical meaning.

VEGF = VEGF expression in the cortex infarction zone (immunohistochemistry SP two-step method); settings: MCAO rats, vs model group
Ca^2+—Mg^2+ ATPase = assay: Ca2+-Mg2+ ATPase of MCAO rats (brain homogenate, kit); settings: ischemia side brain homogenate, model group 5.32 ± 2.61
Experimental: 140 healthy SD male rats, weighing 280-300 g, provided by BeiJing Vital River Laboratories, certificate No.: SCXK (Jing) 2002-2003.
1.3 Experimental reagents: 0.9% physiological saline, Ca^2+—Mg^2+ enzyme kit
10% chloral hydrate 0.35 g/kg was injected into the abdominal cavity of a rat to anesthetize thereof. The rat was fixed as supine position. The skin was disinfected thereof by 75% medical alcohol. It was cut right in the middle of the neck. The right common carotid artery, internal carotid artery and external carotid artery were separated and the common carotid artery and external carotid artery were ligated. The internal carotid artery was clamped with a bulldog clamp. A cut was made at the crotch of the external carotid artery and the internal carotid artery followed by releasing the bulldog clamp. The nylon wire (diameter 0.25 mm, marked at a distance of 18 mm from the head end) was inserted into the cut and the insertion was stopped when some resistance was felt. The insert depth was a little longer than 18 mm to achieve the cerebral ischemia caused by middle cerebral artery occlusion. The internal carotid artery was ligated and the nylon wire was fixed. The muscle and skin were sutured layer by layer. In sham operation group, the right common carotid artery, the external carotid artery and the internal carotid artery were only exposed and separated. The rats were conventionally raised in different cages regularly. 0.5 ml penicillin was continuously injected into every rat for three days after the surgery.
The rat condition was evaluated after 6 h after the surgery when the rats were conscious according to the Zea Longa 5 grades evaluating method, wherein no apparent neurological symptom was evaluated as 0 point; not being able to completely stretch the left front claw was evaluated as 1 point; whirling leftward was evaluated as 2 point; leaning leftward when walking was evaluated as 3 point; having an epileptic seizure, losing consciousness and not being able to walk independently was evaluated as 4 point. The rats getting 1-3 point were selected for the subsequent experiment.
The rats were divided into 7 groups in the experiment, that is, sham operation group, model group, Nimodipine group, LQC-T4 large dosage group, LQC-T4 small dosage group, TMP group, and TMP+Vanillic acid group. The model rats getting 1 point were distributed randomly into the model group and other administration group, while the rats getting 2 point and 3 point were distributed randomly into above 6 groups according the above method and sham operation group was not involved in the above grouping. […]

[1] = 60 mg/kg intragastrically once a day
[2] = 120 mg/kg intragastrically once a day

COc1cc(C(=O)OCc2nc(C)c(C)nc2C)ccc1OCc1nc(C)c(C)nc1C [LQC-T4, (3,5,6-trimethylpyrazine-2-yl)methyl 3-methoxy-4-((3,5,6-trimethylpyrazine-2-yl)methoxy) benzoate]
neurological symptoms evaluation (3 d) (MCAO rats; [1]): 1.40 ± 0.51
neurological symptoms evaluation (7 d) (MCAO rats; [1]): 1.26 ± 0.35
neurological symptoms evaluation (3 d) (MCAO rats; [2]): 1.29 ± 0.47
neurological symptoms evaluation (7 d) (MCAO rats; [2]): 1.60 ± 0.74
VEGF expression in the rat cerebral infarction zone (VEGF; 60 mg/kg small dosage group): more than that of the model group
VEGF expression in the rat cerebral infarction zone (VEGF; 120 mg/kg large dosage group): more than that of the model group
Ca—Mg ATPase activity (Ca^2+—Mg^2+ ATPase; 60 mg/kg intragastrically once per day for 10 days): 8.91 ± 4.05
Ca—Mg ATPase activity (Ca^2+—Mg^2+ ATPase; 120 mg/kg intragastrically once per day for 10 days): 10.07 ± 5.15

Cc1nc(C)c(C)nc1C [TMP, tetramethylpyrazine, reference compound]
neurological symptoms evaluation (3 d) (MCAO rats; 37 mg/kg once a day): 1.36 ± 0.50
neurological symptoms evaluation (7 d) (MCAO rats; 37 mg/kg once a day): 1.67 ± 0.78
VEGF expression in the rat cerebral infarction zone (VEGF; TMP group): more than that of the model group
Ca—Mg ATPase activity (Ca^2+—Mg^2+ ATPase; 37 mg/kg once per day for 10 days): 9.13 ± 4.11

COCCOC(=O)C1=C(C)NC(C)=C(C(=O)OC(C)C)C1c1cccc([N+](=O)[O-])c1 (stereo not drawn) [Nimodipine, reference compound]
neurological symptoms evaluation (3 d) (MCAO rats; 30 mg/kg once a day): 1.35 ± 0.49
neurological symptoms evaluation (7 d) (MCAO rats; 30 mg/kg once a day): 1.11 ± 0.48
Ca—Mg ATPase activity (Ca^2+—Mg^2+ ATPase; 30 mg/kg once per day for 10 days): 13.25 ± 5.73
